# Tested on: H9C2 cells
# Assay: Cell protection effect against t-BHP in heart cells (LDH release)
# Format: cell-based
# Settings: H9C2, t-BHP 40 μM, 2 hours
# Procedure: In order to identify the protective effect with regard to heart cells, H9C2 cells were divided into 96-well plates by 1.5×10^4, and cultured for 24 hours. The respective wells were treated with compounds of the examples 3× serial diluted to final concentrations of […], then cultured for 15 to 20 minutes. After treating with t-BHP with a final concentration of 40 μM, culturing was performed for 2 hours. In order to identify the protective effect of each compound, a Cytotoxicity LDH assay kit [Dojindo; CK12] was used to measure the degree of extracellular secretion of LDH. To describe briefly, at the time point 2-hour treatment of the cells with t-BHIP was completed, 100 μL each of the supernatant in which the cells were placed was collected and moved to a new 96-well plate. 100 μL/well of the assay buffer included in the kit (same amount as the sample) was added, followed by wrapping with foil and reacting for 30 minutes at room temperature. Observing the change in color of the sample, 50 μL/well of stop solution was added, then an iD3 spectrometer was used to measure absorbance at 490 nm and calculate the EC50 values. The EC50 of the compounds of the examples is preferably no more than 1.0 μM, and more preferably no more than 0.3 μM.
row,Structure (SMILES),EC50 [nM]
1,"CCOCc1cc(NC2CCOCC2)c2[nH]c(-c3ccccc3)c(C(O)C(F)(F)F)c2c1 (stereo not drawn) [Example 37, 1-(5-(ethoxymethyl)-2-phenyl-7-((tetrahydro-2H-pyran-4-yl)amino)-1H-indol-3-yl)-2,2,2-trifluoro-1-ol]",300 to 1000
2,"CCOCc1cc(NC2CCCC2)c2[nH]c(-c3ccccc3)c(CCC(=O)OC)c2c1 [Example 38, Methyl 3-(7-(cyclopentylamino)-5-(ethoxymethyl)-2-phenyl-1H-indol-3-yl)propanoate]",≤ 300
3,"CCOCc1cc(NC2CCOCC2)c2[nH]c(-c3ccccc3)c(CCC(=O)OC)c2c1 [Example 39, Methyl 3-(5-(ethoxymethyl)-2-phenyl-7-((tetrahydro-2H-pyran-4-yl)amino)-1H-indol-3-yl)propanoate]",≤ 300
4,"CCOCc1cc(NC2CCCC2)c2[nH]c(-c3ccccc3)c(CCC(=O)O)c2c1 [Example 40, 3-(7-(cyclopentylamino)-5-(ethoxymethyl)-2-phenyl-1H-indol-3-yl)propanoic acid]",> 1000
5,"COCCc1cc(NC2CCCC2)c2[nH]c(-c3ccccc3)cc2c1 [Example 42, N-cyclopentyl-5-(2-methoxyethyl)-2-phenyl-1H-indol-7-amine]",≤ 300
6,"CCOCc1cc(NC2CCCC2)c2[nH]c(-c3ccccc3)c(-c3nccn3C(=O)OCC)c2c1 [Example 43, Ethyl 2-(7-(cyclopentylamino)-5-(ethoxymethyl)-2-phenyl-1H-indol-3-yl)-1H-imidazole-1-carboxylate]",300 to 1000
7,"CCOCc1cc(NC2CCOCC2)c2[nH]c(-c3ccccc3)c(-c3nccn3C(=O)OCC)c2c1 [Example 44, ethyl 2-(5-(ethoxymethyl)-2-phenyl-7-((tetrahydro-2H-pyran-4-yl)amino)-1H-indol-3-yl)-1H-imidazole-1-carboxylate]",> 1000
8,"CCOCc1cc(NC2CCCC2)c2[nH]c(-c3ccccc3)c(-c3ncc[nH]3)c2c1 [Example 45, N-cyclopentyl-5-(ethoxymethyl)-3-(1H-imidazol-2-yl)-2-phenyl-1H-indol-7-amine]",300 to 1000
9,"CCCOCc1cc(NC2CCOCC2)c2[nH]c(-c3ccccc3)cc2c1 [Example 47, 2-phenyl-5-(propoxymethyl)-N-(tetrahydro-2H-pyran-4-yl)-1H-indol-7-amine]",≤ 300
10,"c1ccc(-c2cc3cc(COCC4CC4)cc(NC4CCOCC4)c3[nH]2)cc1 [Example 48, 5-((cyclopropylmethoxy)methyl)-2-phenyl-N-(tetrahydro-2H-pyran-4-yl)-1H-indol-7-amine]",≤ 300
11,"CCOCc1cc(NCC2CCOCC2)c2[nH]c(-c3ccccc3)cc2c1 [Example 49, 5-(ethoxymethyl)-2-phenyl-N-((tetrahydro-2H-pyran-4-yl)methyl)-1H-indol-7-amine]",≤ 300
12,"COCCCc1cc(NC2CCOCC2)c2[nH]c(-c3ccccc3)cc2c1 [Example 50, 5-(3-methoxypropyl)-2-phenyl-N-(tetrahydro-2H-pyran-4-yl)-1H-indol-7-amine]",≤ 300
13,"CCOCCCc1cc(NC2CCOCC2)c2[nH]c(-c3ccccc3)cc2c1 [Example 51, 5-(3-ethoxypropyl)-2-phenyl-N-(tetrahydro-2H-pyran-4-yl)-1H-indol-7-amine]",≤ 300

# Tested on: not listed separately
# Assay: Plasma and brain concentration after oral administration to ICR mice (HPLC-MS/MS)
# Format: in vivo
# Settings: ICR mouse, 10 mg/kg, 2 hours after administration
# Procedure: […] parameters can be represented as maximum concentration in plasma (Cmax), time taken until maximum concentration in plasma (Tmax), area under the plasma concentration-time curve (AUClast and AUCinf), and half-life (t1/2), and the like.
# The compound of example 2 was orally administered to ICR mice at a dose of 10 mg/kg, and drug concentration in mouse plasma was measured using HPLC-MS/MS spectroscopy at 0.5, 1, 2, 4, 8 and 24 hours. The mouse brains were removed at 2 or 24 hours, and drug concentration in the brain was measured using HPLC-MS/MS spectroscopy. The area under the plasma concentration v. time curve (AUCinf) was measured to be […], and at 2 hours after administration drug concentration in plasma was 546 ng/mL and brain drug concentration was measured at 1043 ng/mL. […] Further, at 24 hours after administration, for Embodiment 2, drug concentration in plasma was measured to be 4.7 ng/mL and drug concentration in the brain was measured at 5.7 ng/mL. With the brain-plasma drug concentration ratio at 1.23, drug exposure in the brain was still high.
# The Comparative Example compound was orally administered to ICR mice at a dose of 10 mg/kg, and drug concentration in mouse plasma was measured using HPLC-MS/MS spectroscopy at 0.5, 1, 2, 4, 8 and 24 hours. The mouse brains were removed at 2 or 24 hours, and drug concentration in the brain was measured using HPLC-MS/MS spectroscopy.
Structure (SMILES),brain drug concentration [ng/mL],drug concentration in plasma [ng/mL]
"OCc1cc(NC2CCCC2)c2[nH]c(-c3ccccc3)cc2c1 [Comparative Example, reference compound]",95.1,1122.4

# Source: US20250289785A1, “INDOLE DERIVATIVE, METHOD FOR PREPARING SAME, AND USE THEREOF” (MITOIMMUNE THERAPEUTICS INC., priority 2021, published 2025)
